The source made the active and inactive calls. How the calls were made is not given here.

The data set has as its system CCRIS mutagenicity, Ames/micronucleus/aberration tests. Description: CCRIS mutagenicity studies.
[1] abbreviates: Test System: AMES SALMONELLA TYPHIMURIUM, Strain/Indicator: TA100, Metabolic Activation: NONE, Method: STANDARD PLATE.
Setting [2] is: Test System: AMES SALMONELLA TYPHIMURIUM, Strain/Indicator: TA98, Metabolic Activation: NONE, Method: PREINCUBATION
Setting [3] is: Test System: AMES SALMONELLA TYPHIMURIUM, Strain/Indicator: TA100, Metabolic Activation: NONE, Method: PREINCUBATION

Regarding `O=[N+]([O-])c1cc2[nH]c3ccc4ccccc4c3c2c2cc(O)ccc12`, the mutagenic call runs as follows: (Test System: AMES SALMONELLA TYPHIMURIUM, Strain/Indicator: TA98, Metabolic Activation: NONE, Method: STANDARD PLATE) “inactive; negative”; (Test System: AMES SALMONELLA TYPHIMURIUM, Strain/Indicator: TA98, Metabolic Activation: RAT, LIVER, S-9, 3-METHYLCHOLANTHRENE, Method: STANDARD PLATE) “active; positive”; under setting [1], “active; positive”; (Test System: AMES SALMONELLA TYPHIMURIUM, Strain/Indicator: TA100, Metabolic Activation: RAT, LIVER, S-9, 3-METHYLCHOLANTHRENE, Method: STANDARD PLATE) “active; positive”.
Turning to `Cc1cc(S(=O)(=O)O)c2c(C)ccc(C(C)C)cc1-2`, the mutagenic call by setting is: (Test System: AMES SALMONELLA TYPHIMURIUM, Strain/Indicator: TA98, Metabolic Activation: NONE) “inactive; negative”; (Test System: AMES SALMONELLA TYPHIMURIUM, Strain/Indicator: TA98, Metabolic Activation: S-9) “inactive; negative”; (Test System: AMES SALMONELLA TYPHIMURIUM, Strain/Indicator: TA100, Metabolic Activation: NONE) “inactive; negative”; (Test System: AMES SALMONELLA TYPHIMURIUM, Strain/Indicator: TA100, Metabolic Activation: S-9) “inactive; negative”; (Test System: AMES SALMONELLA TYPHIMURIUM, Strain/Indicator: TA1535, Metabolic Activation: NONE) “inactive; negative”; (Test System: AMES SALMONELLA TYPHIMURIUM, Strain/Indicator: TA1535, Metabolic Activation: S-9) “inactive; negative”. Also, the mutagenic call (Test System: AMES SALMONELLA TYPHIMURIUM, Strain/Indicator: TA1537, Metabolic Activation: NONE) is “inactive; negative”; the mutagenic call (Test System: AMES SALMONELLA TYPHIMURIUM, Strain/Indicator: TA1537, Metabolic Activation: S-9) was “inactive; negative”; the mutagenic call (Test System: E. COLI, Strain/Indicator: WP2 UVRA, Metabolic Activation: NONE) was “inactive; negative”; the mutagenic call (Test System: E. COLI, Strain/Indicator: WP2 UVRA, Metabolic Activation: S-9) was “inactive; negative”.
As to `Nc1c(N=Nc2ccc(S(=O)(=O)CCOS(=O)(=O)O)cc2)c(S(=O)(=O)O)cc2cc(S(=O)(=O)O)c(N=Nc3ccc(S(=O)(=O)CCOS(=O)(=O)O)cc3)c(O)c12`, the mutagenic call (Test System: Ames Salmonella typhimurium, Strain/Indicator: TA98, Metabolic Activation: None, Method: Preincubation) was “inactive; negative”; the mutagenic call (Test System: Ames Salmonella typhimurium, Strain/Indicator: TA98, Metabolic Activation: Rat, Liver, S-9, Aroclor 1254, Method: Preincubation) is “inactive; negative”; the mutagenic call (Test System: Ames Salmonella typhimurium, Strain/Indicator: TA100, Metabolic Activation: None, Method: Preincubation) was “inactive; negative”; the mutagenic call (Test System: Ames Salmonella typhimurium, Strain/Indicator: TA100, Metabolic Activation: Rat, Liver, S-9, Aroclor 1254, Method: Preincubation) was “inactive; negative”; the mutagenic call (Test System: Ames Salmonella typhimurium, Strain/Indicator: TA102, Metabolic Activation: None, Method: Preincubation) was “inactive; negative”; the mutagenic call (Test System: Ames Salmonella typhimurium, Strain/Indicator: TA102, Metabolic Activation: Rat, Liver, S-9, Aroclor 1254, Method: Preincubation) is “inactive; negative”. The mutagenic call reads like this: (Test System: Ames Salmonella typhimurium, Strain/Indicator: TA1535, Metabolic Activation: None, Method: Preincubation) “inactive; negative”; (Test System: Ames Salmonella typhimurium, Strain/Indicator: TA1535, Metabolic Activation: Rat, Liver, S-9, Aroclor 1254, Method: Preincubation) “inactive; negative”.
Consider `O[C@H]1[C@H]2O[C@H]2c2c(ccc3cc4c(ccc5ccccc54)nc23)[C@@H]1O`, for which the mutagenic call by setting is: under setting [2], “active; positive”; under setting [3], “active; positive”; (Test System: CHINESE HAMSTER V-79, Strain/Indicator: V-79/8-AZAGUANINE, Metabolic Activation: NONE) “active; positive”.
With `O=[N+]([O-])c1ccc(/C=C/c2cccc(CO)n2)o1`, the mutagenic call (Test System: UDS HUMAN FIBROBLASTS, Strain/Indicator: THY INCORP (NON-S-PHASE), Metabolic Activation: NONE, Method: AUTORADIOGRAPHY) was “active; positive”.
As to `c1ccc(-c2cccc(-c3ccccn3)n2)nc1`, the mutagenic call runs as follows: (Test System: AMES SALMONELLA TYPHIMURIUM, Strain/Indicator: TA97, Metabolic Activation: RAT, LIVER, S-9, PHENOBARBITAL, Method: STANDARD PLATE) “active; positive”; (Test System: AMES SALMONELLA TYPHIMURIUM, Strain/Indicator: TA98, Metabolic Activation: RAT, LIVER, S-9, PHENOBARBITAL, Method: STANDARD PLATE) “inactive; negative”; (Test System: AMES SALMONELLA TYPHIMURIUM, Strain/Indicator: TA100, Metabolic Activation: RAT, LIVER, S-9, PHENOBARBITAL, Method: STANDARD PLATE) “active; positive”; (Test System: AMES SALMONELLA TYPHIMURIUM, Strain/Indicator: TA1535, Metabolic Activation: RAT, LIVER, S-9, PHENOBARBITAL, Method: STANDARD PLATE) “inactive; negative”; (Test System: AMES SALMONELLA TYPHIMURIUM, Strain/Indicator: TA1537, Metabolic Activation: RAT, LIVER, S-9, PHENOBARBITAL, Method: STANDARD PLATE) “inactive; negative”; (Test System: AMES SALMONELLA TYPHIMURIUM, Strain/Indicator: TA1538, Metabolic Activation: RAT, LIVER, S-9, PHENOBARBITAL, Method: STANDARD PLATE) “inactive; negative”.
Take `NCCCCCCN`: the mutagenic call runs as follows: (Test System: AMES SALMONELLA TYPHIMURIUM, Strain/Indicator: TA98, Metabolic Activation: HAMSTER, LIVER, S-9, AROCLOR 1254 (10%), Method: PREINCUBATION) “inactive; negative”; under setting [2], “inactive; negative”; (Test System: AMES SALMONELLA TYPHIMURIUM, Strain/Indicator: TA98, Metabolic Activation: RAT, LIVER, S-9, AROCLOR 1254 (10%), Method: PREINCUBATION) “inactive; negative”; (Test System: AMES SALMONELLA TYPHIMURIUM, Strain/Indicator: TA100, Metabolic Activation: HAMSTER, LIVER, S-9, AROCLOR 1254 (10%), Method: PREINCUBATION) “inactive; negative”; under setting [3], “inactive; negative”; (Test System: AMES SALMONELLA TYPHIMURIUM, Strain/Indicator: TA100, Metabolic Activation: RAT, LIVER, S-9, AROCLOR 1254 (10%), Method: PREINCUBATION) “inactive; negative”. Besides, the mutagenic call reads like this: (Test System: AMES SALMONELLA TYPHIMURIUM, Strain/Indicator: TA1535, Metabolic Activation: HAMSTER, LIVER, S-9, AROCLOR 1254 (10%), Method: PREINCUBATION) “inactive; negative”; (Test System: AMES SALMONELLA TYPHIMURIUM, Strain/Indicator: TA1535, Metabolic Activation: NONE, Method: PREINCUBATION) “inactive; negative”; (Test System: AMES SALMONELLA TYPHIMURIUM, Strain/Indicator: TA1535, Metabolic Activation: RAT, LIVER, S-9, AROCLOR 1254 (10%), Method: PREINCUBATION) “inactive; negative”; (Test System: AMES SALMONELLA TYPHIMURIUM, Strain/Indicator: TA1537, Metabolic Activation: HAMSTER, LIVER, S-9, AROCLOR 1254 (10%), Method: PREINCUBATION) “inactive; negative”; (Test System: AMES SALMONELLA TYPHIMURIUM, Strain/Indicator: TA1537, Metabolic Activation: NONE, Method: PREINCUBATION) “inactive; negative”; (Test System: AMES SALMONELLA TYPHIMURIUM, Strain/Indicator: TA1537, Metabolic Activation: RAT, LIVER, S-9, AROCLOR 1254 (10%), Method: PREINCUBATION) “inactive; negative”.
On to `ClCc1c2ccccc2c(Cl)c2ccccc12`, for which, under setting [1], the mutagenic call was “active; positive”.
Regarding `Nc1cnc2ccccc2c1`, the mutagenic call is “inactive; negative” under setting [2]; “active; positive” (Test System: AMES SALMONELLA TYPHIMURIUM, Strain/Indicator: TA98, Metabolic Activation: RAT, LIVER, S-9, KANECHLOR 500 OR PHENOBARBITAL AND BETA-NAPHTHOFLAVONE, Method: PREINCUBATION); “inactive; negative” under setting [3]; “active; positive” (Test System: AMES SALMONELLA TYPHIMURIUM, Strain/Indicator: TA100, Metabolic Activation: RAT, LIVER, S-9, KANECHLOR 500 OR PHENOBARBITAL AND BETA-NAPHTHOFLAVONE, Method: PREINCUBATION).
On to `C1CCNC1`, for which the mutagenic call reads like this: under setting [2], “inactive; negative”; (Test System: AMES SALMONELLA TYPHIMURIUM, Strain/Indicator: TA98, Metabolic Activation: RAT, LIVER, S-9, PCB, Method: PREINCUBATION) “inactive; negative”; under setting [3], “inactive; negative”; (Test System: AMES SALMONELLA TYPHIMURIUM, Strain/Indicator: TA100, Metabolic Activation: RAT, LIVER, S-9, PCB, Method: PREINCUBATION) “inactive; negative”.

These data come from PubChem BioAssay AID1259407 (Chemical Carcinogenesis Research Information System (CCRIS), 2018).
